Assay results taken from article PMC5298231, “The Malaria Parasite's Lactate Transporter PfFNT Is the Target of Antiplasmodial Compounds Identified in Whole Cell Phenotypic Screens” (PLoS Pathogens, 2017).
Like-named read-outs stand apart in the source and are kept apart here.

Key:
[1] = tested on: MMV007839-selected culture B (PfFNT Gly107Ser); test: Parasite proliferation assay, MMV007839-selected culture B; format: cell-based, Plasmodium falciparum; conditions: MMV007839-selected culture B; mean ± SEM; read-out: IC50 value, growth inhibition
Description: Parasite proliferation was measured in 96-well plates using a fluorescent DNA-intercalating dye. The assays were initiated with erythrocytes infected with predominantly ring-stage parasites, and the starting parasitaemia was 0.5–1% and the haematocrit was 1%.
For MMV007839-selected culture A, the drug concentration was increased by 5 nM increments on Day 18, Day 21, and every two days thereafter. […] The cultures were provided with fresh medium and blood and diluted to reduce the parasitaemia as needed.

PfFNT^Gly107Ser = target: T1, PfFNT^Gly107Ser (Plasmodium falciparum, UniProt O77389, G107S); test: PfFNT-mediated L-[14C]lactate uptake by Xenopus oocytes expressing PfFNT Gly107Ser; format: cell-based; conditions: PfFNT Gly107Ser in Xenopus oocytes; pH 6.4, 27.5°C, 10 min; mean ± SEM, n = 4; read-out: IC50, inhibition of PfFNT-mediated L-[14C]lactate transport
T1 construct: expressed in transfected cells; host or cells: Xenopus laevis oocytes (cRNA microinjected, 30 ng)
T1 sequence (O77389 1-309 G107S): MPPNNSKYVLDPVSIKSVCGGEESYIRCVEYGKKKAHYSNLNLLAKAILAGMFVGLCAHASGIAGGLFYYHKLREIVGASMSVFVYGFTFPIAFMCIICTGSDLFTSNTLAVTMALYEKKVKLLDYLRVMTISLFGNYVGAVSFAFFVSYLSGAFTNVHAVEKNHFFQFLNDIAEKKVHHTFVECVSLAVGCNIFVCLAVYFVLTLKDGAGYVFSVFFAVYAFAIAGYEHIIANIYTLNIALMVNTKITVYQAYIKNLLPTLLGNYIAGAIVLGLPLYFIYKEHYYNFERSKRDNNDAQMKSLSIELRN
Description: The PfFNT-mediated uptake of L-[^14C]lactate by oocytes expressing native PfFNT (black symbols) or oocytes expressing PfFNT^Gly107Ser (white symbols) was measured in the presence of a range of different concentrations of MMV007839 (A) and MMV000972 (B). […] To enable a visual comparison between the native PfFNT and PfFNT^Gly107Ser datasets, only part of the concentration range used for the latter is shown in the main panels. The insets show the data obtained for PfFNT^Gly107Ser over the full concentration range tested. In all cases, the data are averaged from four independent experiments (using oocytes from different frogs) and are shown ± SEM. The uptake was measured at 27.5°C over 10 min at pH 6.4 using 2.7 μM L-[^14C]lactate and 600 μM unlabelled L-lactate.
The oocyte expression vectors containing PfFNT, PfENT1 and PfCRT were made previously. […] The uptake of radiolabelled substrates was measured 2–5 days post-injection at 27.5°C in ND96 buffer (containing 96 mM NaCl, 2 mM KCl, 1 mM MgCl2, 1.8 mM CaCl2, 10 mM MES and 10 mM Tris-base; pH-adjusted to the value specified in the relevant Figure legends). […] The oocytes were then transferred to separate wells of a 96-well plate, lysed with 10% SDS, and the radioactivity measured as described previously.

non-injected oocytes = format: cell-based, Xenopus laevis; conditions: full range of inhibitor concentrations
[2] = tested on: erythrocytes infected with 3D7 trophozoites; format: cell-based, Plasmodium falciparum; conditions: 1 μM, within 10 min; mean ± SEM, n = 3
Source text: (§1) Fig 6 The effect of MMV007839 on the volume of parasites and parasitised erythrocytes. […] The data are expressed as a percentage volume increase relative to the starting volume, which for isolated parasites (A) ranged from 35 fL to 46 fL in the individual experiments, and for intact infected erythrocytes (B) ranged from 73 fL to 79 fL. In both cases the data shown are the mean ± SEM from three independent experiments performed on different days. For each condition, the (pre-normalised) volume data for each time point greater than 0 was tested for statistical significance compared to the time zero data for that condition; **P < 0.01, ***P < 0.001.
(§2) The volume of saponin-isolated 3D7 trophozoites and of erythrocytes infected with 3D7 trophozoites was measured using a Beckman Coulter Multisizer 4 fitted with a 100 μm ‘aperture tube’. […] The electrolyte solution within the aperture tube was the same as the Experimental Saline Solution except that it lacked glucose. For experiments on infected erythrocytes, the infected cells were separated from uninfected erythrocytes using a Miltenyi Biotec VarioMACS Magnet and the cells were maintained at 37°C in bicarbonate-free RPMI supplemented with 25 mM HEPES, additional glucose (11 mM) and 0.2 mM hypoxanthine, and pH-adjusted to 7.40. For these measurements the electrolyte solution within the aperture tube differed only from this medium in that it was not supplemented with hypoxanthine or additional glucose. For each measurement of cell volume, approximately 20,000 pulses (each corresponding to the passage of a single cell through the aperture) were recorded. The median volume of the cells within each sample was determined by fitting a log Gaussian distribution curve to the population data.

[3] = tested on: saponin-isolated 3D7 P. falciparum trophozoites; format: cell-based, Plasmodium falciparum; conditions: 1 μM, within 10 min; mean ± SEM, n = 3
Source text: as §1, §2

3D7 parasites = conditions: cited from earlier work
[4] = tested on: PfFNT^Gly107Ser mutant parasites (MMV007839-selected culture B); test: L-[14C]lactate uptake by isolated PfFNT Gly107Ser mutant parasites; conditions: read-out: IC50, inhibition of L-[14C]lactate transport, pH 6.1, 4°C, 20 s, mean ± SEM
[5] = tested on: erythrocytes infected with 3D7 trophozoites (extracellular medium); test: LC-MS metabolite profiling, extracellular medium of parasitised erythrocyte suspensions; conditions: 6 μM

## COc1ccc2c(c1)OC(O)(C(F)(F)C(F)(F)F)CC2=O (stereo not drawn) [MMV007839]
[1]
  IC50: 37.5 ± 2.7 µM
PfFNT^Gly107Ser
  IC50: 1300 ± 200 nM
non-injected oocytes
  Effect on L-[14C]lactate transport into control (non-injected) oocytes: no changes
[2]
  Volume increase of erythrocytes infected with 3D7 trophozoites: 5.4 ± 1.0 fL
  Volume increase of erythrocytes infected with 3D7 trophozoites relative to starting volume: 7.2 ± 1.3%
[3]
  Volume increase of isolated parasites: 5.1 ± 0.8 fL
  Volume increase of isolated parasites relative to starting volume: 13.1 ± 2.8%
3D7 parasites; ref [1] Van Voorhis et al. 2016, read-out: IC50 for killing of 3D7 parasites
  IC50: 280 nM
3D7 parasites; ref http://www.mmv.org/research-development/malaria-box-supporting-information, read-out: IC50 against 3D7 parasites, other groups
  IC50: 283 to 442 nM
[4]
  IC50: 16.3 ± 4.4 µM
[5]; not statistically significant
  Extracellular lactate level, treated vs untreated: decreased
  Extracellular pyruvate level, treated vs untreated: increased
  Extracellular α-ketoglutarate level, treated vs untreated: decreased
[5]; statistically significant
  Extracellular 3-phosphoglycerate level, treated vs untreated: increased
  Extracellular phosphoenolpyruvate level, treated vs untreated: increased
